The source of these data is patent publication US11254690B2, “PTEFb inhibiting macrocyclic compounds” (BAYER AKTIENGESELLSCHAFT, priority 2017, dated 2022).

One assay concerns MOLM-13 cells. In words: Proliferation assay, MOLM-13. In kind it is cell-based. The settings on record: Homo sapiens, 72-hour exposure, Cell Titre-Glo, read-out: Inhibition of MOLM-13 cell proliferation IC50. How it is done:
(§1) Cultivated tumour cells (HeLa, human cervical tumour cells, ATCC CCL-2; NCI-H460, human non-small cell lung carcinoma cells, ATCC HTB-177; DU 145, hormone-independent human prostate carcinoma cells, ATCC HTB-81; HeLa-MaTu-ADR, multidrug-resistant human cervical carcinoma cells, EPO-GmbH Berlin; Caco-2, human colorectal carcinoma cells, ATCC HTB-37; B16F10, mouse melanoma cells, ATCC CRL-6475) were plated at a density of 5,000 cells/well (DU145, HeLa-MaTu-ADR), 3,000 cells/well (NCI-H460, HeLa), 1,500 cells/well (Caco-2), or 1,000 cells/well (B16F10) in a 96-well multititer plate in 200 μL of their respective growth medium supplemented 10% fetal calf serum. After 24 hours, the cells of one plate (zero-point plate) were stained with crystal violet (see below), while the medium of the other plates was supplemented with the test substances in various concentrations (0 μM, as well as in the range of 0.0001-10 μM; the final concentration of the solvent dimethyl sulfoxide was adjusted to 0.1%) using a Hewlett-Packard HP D300 Digital Dispenser. The cells were incubated for 4 days in the presence of test substances. Cell proliferation was determined by staining the cells with crystal violet: the cells were fixed by adding 20 μl/measuring point of an 11% glutaric aldehyde solution for 15 minutes at room temperature. After three washing cycles of the fixed cells with water, the plates were dried at room temperature. The cells were stained by adding 100 μl/measuring point of a 0.1% crystal violet solution (pH 3.0). After three washing cycles of the stained cells with water, the plates were dried at room temperature. The dye was dissolved by adding 100 μl/measuring point of a 10% acetic acid solution. The extinction was determined by photometry at a wavelength of 595 nm. The change of cell number, in percent, was calculated by normalization of the measured values to the extinction values of the zero-point plate (=0%) and the extinction of the untreated ([…]) cells (=100%). The IC50 values (inhibitory concentration at 50% of maximal effect) were determined by means of a 4 parameter fit. A2780 human ovarian carcinoma cells (ECACC #93112519) and non-adherent MOLM-13 human acute myeloid leukemia cells (DSMZ ACC 554) were seeded at a density of 3,000 cell/well (A2780) or 5,000 cells/well (MOLM-13) in a 96-well multititer plate in 150 μL of growth medium supplemented 10% fetal calf serum. After 24 hours, cell viability of one plate (zero-point plate) was determined with the Cell Titre-Glo Luminescent Cell Viability Assay (Promega), while the medium of the other plates was supplemented with the test substances in various concentrations (0 μM, as well as in the range of 0.0001-10 μM; the final concentration of the solvent dimethyl sulfoxide was adjusted to 0.1%) using a Hewlett-Packard HP D300 Digital Dispenser. Cell viability was assessed after 72-hour exposure with the Cell Titre-Glo Luminescent Cell Viability Assay (Promega). IC50 values (inhibitory concentration at 50% of maximal effect) were determined by means of a 4 parameter fit on measurement data which were normalized to vehicle (DMSO) treated cells (=100%) and measurement readings taken immediately before compound exposure (=0%).

The target in the next assay is T1, CDK9/CycT1 (Homo sapiens, UniProt P50750).
T1 construct: Recombinant full-length His-tagged human CDK9 and CycT1; His; purchased Life Technologies PV4131; host or cells: insect cells
In words: CDK9/CycT1 high ATP kinase assay (TR-FRET, 2 mM ATP). The assay is classed as biochemical. The settings on record: for IC50: 2 mM ATP, Method 1b, lower limit for IC50s about 1-2 nM; for Selectivity high ATP CDK9 over high ATP CDK2: IC50 (high ATP CDK2)/IC50 (high ATP CDK9): ratio from Methods 1b and 2b, minimal values for IC50s near the assay limit. The essentials: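 Full-length His-tagged human CDK9/CycT1 from insect cells (about 0.5 μg/ml) was preincubated with compound for 15 min at 22° C in 50 mM Tris/HCl pH 8.0, 10 mM MgCl2, 1.0 mM DTT. Phosphorylation was detected by TR-FRET with anti-RB(pSer807/pSer811) antibody, as the 665/622 nm ratio normalised to no-inhibitor and no-enzyme controls.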

The next assay has as its system HeLa cells. The experiment in a line: Proliferation assay, HeLa. In kind it is cell-based. Conditions: Homo sapiens, 96 h, 4 days, crystal violet, read-out: Inhibition of HeLa cell proliferation IC50. Here is the method:
as §1

The structures appear in SMILES notation.

T1 sequence (P50750 whole entry): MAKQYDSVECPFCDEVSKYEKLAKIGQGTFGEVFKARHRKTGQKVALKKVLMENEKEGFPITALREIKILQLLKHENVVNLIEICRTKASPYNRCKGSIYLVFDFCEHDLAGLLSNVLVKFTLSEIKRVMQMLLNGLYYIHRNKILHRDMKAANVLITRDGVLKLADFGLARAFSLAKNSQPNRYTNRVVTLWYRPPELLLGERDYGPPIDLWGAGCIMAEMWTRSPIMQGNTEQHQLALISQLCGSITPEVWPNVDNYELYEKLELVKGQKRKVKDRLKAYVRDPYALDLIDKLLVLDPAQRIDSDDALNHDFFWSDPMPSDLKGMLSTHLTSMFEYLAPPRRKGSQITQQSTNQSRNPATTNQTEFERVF
T1 sequence (O60563 whole entry partner): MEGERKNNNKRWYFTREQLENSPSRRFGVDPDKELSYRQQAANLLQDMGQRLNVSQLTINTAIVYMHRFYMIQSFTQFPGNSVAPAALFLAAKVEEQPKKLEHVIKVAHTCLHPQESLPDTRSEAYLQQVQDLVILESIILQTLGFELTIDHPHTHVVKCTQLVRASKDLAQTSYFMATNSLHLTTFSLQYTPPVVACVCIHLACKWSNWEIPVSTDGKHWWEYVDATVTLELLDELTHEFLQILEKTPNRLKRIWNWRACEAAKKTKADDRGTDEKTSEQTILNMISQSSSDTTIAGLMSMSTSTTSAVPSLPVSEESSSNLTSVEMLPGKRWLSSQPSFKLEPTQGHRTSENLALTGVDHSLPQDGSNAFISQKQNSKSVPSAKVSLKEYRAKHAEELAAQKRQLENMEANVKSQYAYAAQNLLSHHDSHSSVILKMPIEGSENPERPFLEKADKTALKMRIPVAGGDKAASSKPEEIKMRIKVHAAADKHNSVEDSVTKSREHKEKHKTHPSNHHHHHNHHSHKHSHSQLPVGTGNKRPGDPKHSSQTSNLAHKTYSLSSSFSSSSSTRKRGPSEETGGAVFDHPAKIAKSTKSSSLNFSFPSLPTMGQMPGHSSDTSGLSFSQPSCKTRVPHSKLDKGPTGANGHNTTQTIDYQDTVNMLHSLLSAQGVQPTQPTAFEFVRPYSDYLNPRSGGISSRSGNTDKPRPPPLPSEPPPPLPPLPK

With `CS(=N)(=O)Cc1cc2cc(c1)OCCCOc1cc(ccc1F)-c1nc(ncc1F)N2` (racemic) [Example 10, (rac)-3,19-difluoro-10-[(S-methylsulfonimidoyl)methyl]-13,17-dioxa-5,7,24-triazatetracyclo[16.3.1.1^2,6.1^8,12]tetracosa-1(22),2(24),3,5,8(23),9,11,18,20-nonaene], the IC50 with MOLM-13 cells came out at 33 nM; against CDK9/CycT1, 25 nM; in the assay on HeLa cells, 128 nM. The “Selectivity high ATP CDK9 over high ATP CDK2: IC50 (high ATP CDK2)/IC50 (high ATP CDK9)” value (from here on “Selectivity high ATP CDK9”) on CDK9/CycT1 is recorded as 190.

For the molecule `CC1CCCOc2cc(ccc2F)-c2cc(ncc2F)Nc2cc(CS(C)(=N)=O)cc(n2)O1` (single isomer, unassigned) [Example 17, 3,20-difluoro-14-methyl-10-[(S-methylsulfonimidoyl)methyl]-13,18-dioxa-5,7,24-triazatetracyclo[17.3.1.1^2,6.1^8,12]pentacosa-1(23),2(25),3,5,8(24),9,11,19,21-nonaene], the “Selectivity high ATP CDK9” value on CDK9/CycT1 worked out at 132.

Regarding `CC1CCCCOc2cc(ccc2F)-c2cc(ncc2F)Nc2cc(CS(C)(=N)=O)cc(n2)O1` (single isomer, unassigned) [Example 22, 3,21-difluoro-14-methyl-10-[(S-methylsulfonimidoyl)methyl]-13,19-dioxa-5,7,25-triazatetracyclo[18.3.1.1^2,6.1^8,12]hexacosa-1(24),2(26),3,5,8(25),9,11,20,22-nonaene], on CDK9/CycT1, the “Selectivity high ATP CDK9” value is 251.

On to `CC1CCCOc2cc(ccc2F)-c2cc(ncc2F)Nc2cc(CS(C)(=O)=O)cc(n2)O1` (racemic) [Example 28, 3,20-difluoro-14-methyl-10-[(methylsulfonyl)methyl]-13,18-dioxa-5,7,24-triazatetracyclo[17.3.1.1^2,6.1^8,12]pentacosa-1(23),2(25),3,5,8(24),9,11,19,21-nonaene], for which the “Selectivity high ATP CDK9” value on CDK9/CycT1 is 189.

In the case of `CC1CCCCOc2cc(ccc2F)-c2cc(ncc2F)Nc2cc(CS(C)(=N)=O)cc(n2)O1` (single isomer, unassigned) [Example 21, 3,21-difluoro-14-methyl-10-[(S-methylsulfonimidoyl)methyl]-13,19-dioxa-5,7,25-triazatetracyclo[18.3.1.1^2,6.1^8,12]hexacosa-1(24),2(26),3,5,8(25),9,11,20,22-nonaene], the “Selectivity high ATP CDK9” value at CDK9/CycT1 was 1225.

Turning to `CC(C)(C)OC(=O)N=S(C)(=O)Cc1cc2cc(c1)OCCCCOc1cc(ccc1F)-c1nc(ncc1F)N2` (racemic) [Example 3, (rac)-tert-butyl [{[3,20-difluoro-13,18-dioxa-5,7,25-triazatetracyclo[17.3.1.1^2,6.1^8,12]pentacosa-1(23),2(25),3,5,8(24),9,11,19,21-nonaen-10-yl]methyl}(methyl)oxido-λ^6-sulfanylidene]carbamate], the IC50 in the assay with MOLM-13 cells amounted to 108 nM; against CDK9/CycT1, 5 nM; with HeLa cells, 244 nM. Also, on CDK9/CycT1, the “Selectivity high ATP CDK9” value was more than 4000.

With `CS(=N)(=O)Cc1cc2cc(c1)OCCCCOc1c(F)ccc(c1F)-c1nc(ncc1F)N2` (racemic) [Example 8, (rac)-3,20,23-trifluoro-10-[(S-methylsulfonimidoyl)methyl]-13,18-dioxa-5,7,25-triazatetracyclo[17.3.1.1^2,6.1^8,12]pentacosa-1(23),2(25),3,5,8(24),9,11,19,21-nonaene], the IC50 in the assay on MOLM-13 cells came out at 45 nM; against CDK9/CycT1, 17 nM; in the assay on HeLa cells, 177 nM. Further, the “Selectivity high ATP CDK9” value on CDK9/CycT1 was 385.

In the case of `CC1CCCOc2cc(ccc2F)-c2cc(ncc2F)Nc2cc(CS(C)(=N)=O)cc(n2)O1` (single isomer, unassigned) [Example 16, 3,20-difluoro-14-methyl-10-[(S-methylsulfonimidoyl)methyl]-13,18-dioxa-5,7,24-triazatetracyclo[17.3.1.1^2,6.1^8,12]pentacosa-1(23),2(25),3,5,8(24),9,11,19,21-nonaene], the “Selectivity high ATP CDK9” value on CDK9/CycT1 is on record as 72.

Regarding `CS(=N)(=O)Cc1cc2nc(c1)OCCCCOc1cc(ccc1F)-c1cc(ncc1F)N2` (racemic) [Example 2, (rac)-3,20-difluoro-10-[(S-methylsulfonimidoyl)methyl]-13,18-dioxa-5,7,24-triazatetracyclo[17.3.1.1^2,6.1^8,12]pentacosa-1(23),2(25),3,5,8(24),9,11,19,21-nonaene], the figures for the IC50 in the assay with MOLM-13 cells, at CDK9/CycT1 and in the assay on HeLa cells were 27 nM, 7 nM and 90 nM, respectively. Further, the “Selectivity high ATP CDK9” value on CDK9/CycT1 came out at 105.

With `CS(=N)(=O)Cc1cc2cc(c1)OCCCCCOc1cc(ccc1F)-c1nc(ncc1F)N2` (racemic) [Example 6, (rac)-3,21-difluoro-10-[(S-methylsulfonimidoyl)methyl]-13,19-dioxa-5,7,26-triazatetracyclo[18.3.1.1^2,6.1^8,12]hexacosa-1(24),2(26),3,5,8(25),9,11,20,22-nonaene], the results for the IC50 in the assay with MOLM-13 cells, at CDK9/CycT1 and in the assay with HeLa cells were 140 nM, 5 nM and 199 nM, respectively. Besides, at CDK9/CycT1, the “Selectivity high ATP CDK9” value is 3240.

For the molecule `CC(C)(C)OC(=O)N=S(C)(=O)Cc1cc2cc(c1)OCCCCCOc1cc(ccc1F)-c1nc(ncc1F)N2` (racemic) [Example 5, (rac)-tert-butyl [{[3,21-difluoro-13,19-dioxa-5,7,26-triazatetracyclo[18.3.1.1^2,6.1^8,12]hexacosa-1(24),2(26),3,5,8(25),9,11,20,22-nonaen-10-yl]methyl}(methyl)oxido-λ^6-sulfanylidene]carbamate], the IC50 stood at 228 nM in the assay with MOLM-13 cells, 24 nM against CDK9/CycT1 and 964 nM in the assay with HeLa cells. For the same molecule, on CDK9/CycT1, the “Selectivity high ATP CDK9” value is reported as more than 833.

`CS(=N)(=O)Cc1cc2cc(c1)OCCCCOc1cc(ccc1F)-c1nc(ncc1F)N2` (racemic) [Example 4, (rac)-3,20-difluoro-10-[(S-methylsulfonimidoyl)methyl]-13,18-dioxa-5,7,25-triazatetracyclo[17.3.1.1^2,6.1^8,12]pentacosa-1(23),2(25),3,5,8(24),9,11,19,21-nonaene]: the values for the IC50 in the assay with MOLM-13 cells, against CDK9/CycT1 and in the assay on HeLa cells were 20 nM, 3 nM and 150 nM, respectively. Moreover, on CDK9/CycT1, the “Selectivity high ATP CDK9” value is reported as 513.
